Patent US20220175768A1, “FGFR TYROSINE KINASE INHIBITORS FOR THE TREATMENT OF UROTHELIAL CARCINOMA” (Janssen Pharmaceutica NV, priority 2019, published 2022)

[1] = 10 mg intermittent, regimen 1 (n = 33)

SMILES: COc1cc(OC)cc(N(CCNC(C)C)c2ccc3ncc(-c4cnn(C)c4)nc3c2)c1 [erdafitinib, N-(3,5-dimethoxy-phenyl)-N′-(1-methylethyl)-N-[3-(1-methyl-1H-pyrazol-4-yl)quinoxalin-6-yl]ethane-1,2-diamine]
- Patients with Hematuria, Grade ≥3 [1]: 0 no. (%)
- Patients with Hyperphosphatemia, Any grade [1]: 16 (48) no. (%)
- Patients with Hyperphosphatemia, Grade 1 [1]: 15 (46) no. (%)
- Patients with Hyperphosphatemia, Grade 2 [1]: 1 (3) no. (%)
- Patients with Hyperphosphatemia, Grade ≥3 [1]: 0 no. (%)
- Patients with Hypomagnesemia, Any grade [1]: 2 (6) no. (%)
- Patients with Hypomagnesemia, Grade 1 [1]: 2 (6) no. (%)
- Patients with Hypomagnesemia, Grade 2 [1]: 0 no. (%)
- Patients with Hypomagnesemia, Grade ≥3 [1]: 0 no. (%)
- Patients with Hyponatremia, Any grade [1]: 2 (6) no. (%)
- Patients with Hyponatremia, Grade 1 [1]: 0 no. (%)
- Patients with Hyponatremia, Grade 2 [1]: 0 no. (%)
- Patients with Hyponatremia, Grade ≥3 [1]: 2 (6) no. (%)
- Patients with Insomnia, Any grade [1]: 3 (9) no. (%)
- Patients with Insomnia, Grade 1 [1]: 0 no. (%)
- Patients with Insomnia, Grade 2 [1]: 3 (9) no. (%)
- Patients with Insomnia, Grade ≥3 [1]: 0 no. (%)
- Patients with Lacrimation increased, Any grade [1]: 6 (18) no. (%)
- Patients with Lacrimation increased, Grade 1 [1]: 5 (15) no. (%)
- Patients with Lacrimation increased, Grade 2 [1]: 1 (3) no. (%)
- Patients with Lacrimation increased, Grade ≥3 [1]: 0 no. (%)
- Patients with Nail dystrophy, Any grade [1]: 2 (6) no. (%)
- Patients with Nail dystrophy, Grade 1 [1]: 2 (6) no. (%)
- Patients with Nail dystrophy, Grade 2 [1]: 0 no. (%)
- Patients with Nail dystrophy, Grade ≥3 [1]: 0 no. (%)
- Patients with Nausea, Any grade [1]: 5 (15) no. (%)
- Patients with Nausea, Grade 1 [1]: 3 (9) no. (%)
- Patients with Nausea, Grade 2 [1]: 2 (6) no. (%)
- Patients with Nausea, Grade ≥3 [1]: 0 no. (%)
- Patients with Onycholysis, Any grade [1]: 7 (21) no. (%)
- Patients with Onycholysis, Grade 1 [1]: 3 (9) no. (%)
- Patients with Onycholysis, Grade 2 [1]: 3 (9) no. (%)
- Patients with Onycholysis, Grade ≥3 [1]: 1 (3) no. (%)
- Patients with Onychomadesis, Any grade [1]: 1 (3) no. (%)
- Patients with Onychomadesis, Grade 1 [1]: 1 (3) no. (%)
- Patients with Onychomadesis, Grade 2 [1]: 0 no. (%)
- Patients with Onychomadesis, Grade ≥3 [1]: 0 no. (%)
- Patients with Oropharyngeal pain, Any grade [1]: 0 no. (%)
- Patients with Oropharyngeal pain, Grade 1 [1]: 0 no. (%)
- Patients with Oropharyngeal pain, Grade 2 [1]: 0 no. (%)
- Patients with Oropharyngeal pain, Grade ≥3 [1]: 0 no. (%)
- Patients with Pain in extremity, Any grade [1]: 5 (15) no. (%)
- Patients with Pain in extremity, Grade 1 [1]: 3 (9) no. (%)
- Patients with Pain in extremity, Grade 2 [1]: 1 (3) no. (%)
- Patients with Pain in extremity, Grade ≥3 [1]: 1 (3) no. (%)
- Patients with Paronychia, Any grade [1]: 2 (6) no. (%)
- Patients with Paronychia, Grade 1 [1]: 0 no. (%)
- Patients with Paronychia, Grade 2 [1]: 2 (6) no. (%)
- Patients with Paronychia, Grade ≥3 [1]: 0 no. (%)
- Patients with Peripheral edema, Any grade [1]: 5 (15) no. (%)
- Patients with Peripheral edema, Grade 1 [1]: 1 (3) no. (%)
- Patients with Peripheral edema, Grade 2 [1]: 4 (12) no. (%)
- Patients with Peripheral edema, Grade ≥3 [1]: 0 no. (%)
- Patients with Pyrexia, Any grade [1]: 5 (15) no. (%)
- Patients with Pyrexia, Grade 1 [1]: 5 (15) no. (%)
- Patients with Pyrexia, Grade 2 [1]: 0 no. (%)
- Patients with Pyrexia, Grade ≥3 [1]: 0 no. (%)
- Patients with Retinal detachment, Any grade [1]: 2 (6) no. (%)
- Patients with Retinal detachment, Grade 1 [1]: 1 (3) no. (%)
- Patients with Retinal detachment, Grade 2 [1]: 1 (3) no. (%)
- Patients with Retinal detachment, Grade ≥3 [1]: 0 no. (%)
- Patients with Stomatitis, Any grade [1]: 16 (48) no. (%)
- Patients with Stomatitis, Grade 1 [1]: 9 (27) no. (%)
- Patients with Stomatitis, Grade 2 [1]: 6 (18) no. (%)
- Patients with Stomatitis, Grade ≥3 [1]: 1 (3) no. (%)
- Patients with Urinary tract infection, Any grade [1]: 4 (12) no. (%)
- Patients with Urinary tract infection, Grade 1 [1]: 0 no. (%)
- Patients with Urinary tract infection, Grade 2 [1]: 2 (6) no. (%)
- Patients with Urinary tract infection, Grade ≥3 [1]: 2 (6) no. (%)
- Patients with Vision blurred, Any grade [1]: 5 (15) no. (%)
- Patients with Vision blurred, Grade 1 [1]: 4 (12) no. (%)
- Patients with Vision blurred, Grade 2 [1]: 1 (3) no. (%)
- Patients with Vision blurred, Grade ≥3 [1]: 0 no. (%)
- Patients with Vomiting, Any grade [1]: 9 (27) no. (%)
- Patients with Vomiting, Grade 1 [1]: 7 (21) no. (%)
- Patients with Vomiting, Grade 2 [1]: 2 (6) no. (%)
- Patients with Vomiting, Grade ≥3 [1]: 0 no. (%)
- Patients with Weight decreased, Any grade [1]: 3 (9) no. (%)
- Patients with Weight decreased, Grade 1 [1]: 1 (3) no. (%)
- Patients with Weight decreased, Grade 2 [1]: 2 (6) no. (%)
- Patients with Weight decreased, Grade ≥3 [1]: 0 no. (%)
- Serious treatment-emergent adverse event: Nervous system disorders [1]: 0 no.
- Serious treatment-emergent adverse event: Urinary tract infection [1]: 0 no.
- Serious treatment-emergent adverse event: Urosepsis [1]: 0 no.
- Treatment-related adverse event: Alopecia, Any grade [1]: 3 (9) no. (%)
- Treatment-related adverse event: Alopecia, Grade 1 [1]: 1 (3) no. (%)
- Treatment-related adverse event: Alopecia, Grade 2 [1]: 2 (6) no. (%)
- Treatment-related adverse event: Alopecia, Grade ≥3 [1]: 0 no. (%)
- Treatment-related adverse event: Asthenia, Any grade [1]: 6 (18) no. (%)
- Treatment-related adverse event: Asthenia, Grade 1 [1]: 2 (6) no. (%)
- Treatment-related adverse event: Asthenia, Grade 2 [1]: 2 (6) no. (%)
- Treatment-related adverse event: Asthenia, Grade ≥3 [1]: 2 (6) no. (%)
- Treatment-related adverse event: Conjunctivitis, Any grade [1]: 4 (12) no. (%)
- Treatment-related adverse event: Conjunctivitis, Grade 1 [1]: 3 (9) no. (%)
- Treatment-related adverse event: Conjunctivitis, Grade 2 [1]: 1 (3) no. (%)
- Treatment-related adverse event: Conjunctivitis, Grade ≥3 [1]: 0 no. (%)
- Treatment-related adverse event: Decreased appetite, Any grade [1]: 6 (18) no. (%)
- Treatment-related adverse event: Decreased appetite, Grade 1 [1]: 2 (6) no. (%)
- Treatment-related adverse event: Decreased appetite, Grade 2 [1]: 4 (12) no. (%)
- Treatment-related adverse event: Decreased appetite, Grade ≥3 [1]: 0 no. (%)
- Treatment-related adverse event: Diarrhea, Any grade [1]: 13 (39) no. (%)
- Treatment-related adverse event: Diarrhea, Grade 1 [1]: 7 (21) no. (%)
- Treatment-related adverse event: Diarrhea, Grade 2 [1]: 5 (15) no. (%)
- Treatment-related adverse event: Diarrhea, Grade ≥3 [1]: 1 (3) no. (%)
- Treatment-related adverse event: Dry mouth, Any grade [1]: 14 (42) no. (%)
- Treatment-related adverse event: Dry mouth, Grade 1 [1]: 13 (39) no. (%)
- Treatment-related adverse event: Dry mouth, Grade 2 [1]: 1 (3) no. (%)
- Treatment-related adverse event: Dry mouth, Grade ≥3 [1]: 0 no. (%)
- Treatment-related adverse event: Dry skin, Any grade [1]: 8 (24) no. (%)
- Treatment-related adverse event: Dry skin, Grade 1 [1]: 7 (21) no. (%)
- Treatment-related adverse event: Dry skin, Grade 2 [1]: 1 (3) no. (%)
- Treatment-related adverse event: Dry skin, Grade ≥3 [1]: 0 no. (%)
- Treatment-related adverse event: Dysgeusia, Any grade [1]: 10 (30) no. (%)
- Treatment-related adverse event: Dysgeusia, Grade 1 [1]: 7 (21) no. (%)
- Treatment-related adverse event: Dysgeusia, Grade 2 [1]: 3 (9) no. (%)
- Treatment-related adverse event: Dysgeusia, Grade ≥3 [1]: 0 no. (%)
- Treatment-related adverse event: Fatigue, Any grade [1]: 4 (12) no. (%)
- Treatment-related adverse event: Fatigue, Grade 1 [1]: 2 (6) no. (%)
- Treatment-related adverse event: Fatigue, Grade 2 [1]: 2 (6) no. (%)
- Treatment-related adverse event: Fatigue, Grade ≥3 [1]: 0 no. (%)
- Treatment-related adverse event: Hand-foot syndrome, Any grade [1]: 2 (6) no. (%)
- Treatment-related adverse event: Hand-foot syndrome, Grade 1 [1]: 0 no. (%)
- Treatment-related adverse event: Hand-foot syndrome, Grade 2 [1]: 2 (6) no. (%)
- Treatment-related adverse event: Hand-foot syndrome, Grade ≥3 [1]: 0 no. (%)
- Treatment-related adverse event: Hyperphosphatemia, Any grade [1]: 15 (46) no. (%)
- Treatment-related adverse event: Hyperphosphatemia, Grade 1 [1]: 14 (42) no. (%)
- Treatment-related adverse event: Hyperphosphatemia, Grade 2 [1]: 1 (3) no. (%)
- Treatment-related adverse event: Hyperphosphatemia, Grade ≥3 [1]: 0 no. (%)
- Treatment-related adverse event: Lacrimation increased, Any grade [1]: 4 (12) no. (%)
- Treatment-related adverse event: Lacrimation increased, Grade 1 [1]: 4 (12) no. (%)
- Treatment-related adverse event: Lacrimation increased, Grade 2 [1]: 0 no. (%)
- Treatment-related adverse event: Lacrimation increased, Grade ≥3 [1]: 0 no. (%)
- Treatment-related adverse event: Nausea, Any grade [1]: 5 (15) no. (%)
- Treatment-related adverse event: Nausea, Grade 1 [1]: 3 (9) no. (%)
- Treatment-related adverse event: Nausea, Grade 2 [1]: 2 (6) no. (%)
- Treatment-related adverse event: Nausea, Grade ≥3 [1]: 0 no. (%)
- Treatment-related adverse event: Onycholysis, Any grade [1]: 6 (18) no. (%)
- Treatment-related adverse event: Onycholysis, Grade 1 [1]: 2 (6) no. (%)
- Treatment-related adverse event: Onycholysis, Grade 2 [1]: 3 (9) no. (%)
- Treatment-related adverse event: Onycholysis, Grade ≥3 [1]: 1 (3) no. (%)
- Treatment-related adverse event: Onychomadesis, Any grade [1]: 1 (3) no. (%)
- Treatment-related adverse event: Onychomadesis, Grade 1 [1]: 1 (3) no. (%)
- Treatment-related adverse event: Onychomadesis, Grade 2 [1]: 0 no. (%)
- Treatment-related adverse event: Onychomadesis, Grade ≥3 [1]: 0 no. (%)
- Treatment-related adverse event: Paronychia, Any grade [1]: 2 (6) no. (%)
- Treatment-related adverse event: Paronychia, Grade 1 [1]: 0 no. (%)
- Treatment-related adverse event: Paronychia, Grade 2 [1]: 2 (6) no. (%)
- Treatment-related adverse event: Paronychia, Grade ≥3 [1]: 0 no. (%)
- Treatment-related adverse event: Retinal detachment, Any grade [1]: 2 (6) no. (%)
- Treatment-related adverse event: Retinal detachment, Grade 1 [1]: 1 (3) no. (%)
- Treatment-related adverse event: Retinal detachment, Grade 2 [1]: 1 (3) no. (%)
- Treatment-related adverse event: Retinal detachment, Grade ≥3 [1]: 0 no. (%)
- Treatment-related adverse event: Stomatitis, Any grade [1]: 16 (49) no. (%)
- Treatment-related adverse event: Stomatitis, Grade 1 [1]: 9 (27) no. (%)
- Treatment-related adverse event: Stomatitis, Grade 2 [1]: 6 (18) no. (%)
- Treatment-related adverse event: Stomatitis, Grade ≥3 [1]: 1 (3) no. (%)
- Treatment-related adverse event: Vision blurred, Any grade [1]: 5 (15) no. (%)
- Treatment-related adverse event: Vision blurred, Grade 1 [1]: 4 (12) no. (%)
- Treatment-related adverse event: Vision blurred, Grade 2 [1]: 1 (3) no. (%)
- Treatment-related adverse event: Vision blurred, Grade ≥3 [1]: 0 no. (%)
- Patients who required ≥1 dose reduction (41 patients of the 8 mg regimen uptitrated to 9 mg per day): 59%
- Hyperphosphatemia leading to dose reduction (Regimen 3): 9%
- Hyperphosphatemia reported (Regimen 3): 77%
- Patients discontinued due to treatment-emergent adverse events (Regimen 3): 13%
- Patients who required dose reduction (Regimen 3): 56%
- Stomatitis leading to dose reduction (Regimen 3): 16%
- Treatment-emergent adverse events grade 3 or 4 (Regimen 3): 67%
- Central serious retinopathy events resolved (all unresolved events were grade 1 or 2): Seventy-six
- Hyperphosphatemia managed by dose interruption (in vivo): 23%
- Time of peak phosphate elevation after erdafitinib initiation (normalized by cycle 5): 6 weeks
- Patients with grade ≥3 treatment-emergent adverse events (overall trial population): 66%
- Patients with grade 1 or 2 events among patients with eye disorders (patients with eye disorders (n=62)): 84%
